Assay results as given in paper PMC11187217, “Anti-adhesive, anti-biofilm and fungicidal action of newly synthesized gemini quaternary ammonium salts” (Scientific Reports, 2024).

Test system: Salmonella Typhimurium TA100
Conditions: TA100, positive control 15 μg/mL
Protocol: The mutagenic potential of the tested gemini QAS was determined using the Ames test[83] using Salmonella Typhimurium TA98 and Salmonella Typhimurium TA100 with defects in histidine biosynthesis. The culture of S. Typhimurium TA98 and S. Typhimurium TA100 was incubated with shaking at 37 °C for 18 h, centrifuged (3000 rpm, 5 min) and OD = 1.5 was determined, at a wavelength of λ = 590 nm. The agar was dissolved and cooled to 42 °C. […] The media were incubated for 48 h at 37 °C. The positive control for the S. Typhimurium TA98 strain was acriflavin (100 μg/ml), and for the S. Typhimurium TA100 strain, sodium azide (15 μg/ml). The negative control was the culture without tested compound and with NaCl (0,9%). After incubation, the colonies were counted and the mutagenicity index (MR) was determined—the ratio of the number of revertants resulting from the mutagenic effect of the tested compound to the number of spontaneous revertants. Experiment was performed in three repetitions.

[N-]=[N+]=[N-].[Na+] [sodium azide, reference compound]
Mutagenicity ratio (MR): 25.5 | Number of colonies (± SD): 5116.0 ± 5.66
